# Measurements published in patent publication US10064885B2, “Metabolic gene, enzyme, and flux targets for cancer therapy” (Massachusetts Institute of Technology, priority 2010, dated 2018).
# How the values were obtained:
# Format in all cases: cell-based, human
# [1] = system: MDA-MB-231 breast carcinoma; experiment: Reductive carboxylation by [1-13C]glutamine labeling and GC/MS in MDA-MB-231 cells expressing shRNAs
# Method: (§1) Cell Culture, Isotopic Labeling, and Hypoxia. All cell lines were cultured in Dulbecco's Modified Eagle Medium (DMEM; Mediatech) containing 10% fetal bovine serum (FBS; Invitrogen) and 100 U/ml penicillin/streptomycin (P/S; Mediatech) unless otherwise mentioned. Cell lines were obtained from ATCC unless otherwise noted. The VC3 glioma cell line was provided by Tim Lautenschlaeger (Ohio State University), MDA-MB-231 and HCT116 cell lines were provided by Ferdinando Chiaradonna (University of Milano-Bicocca), MRC5 cells were provided by Stephen Lippard (MIT), SN12C, ACHN, and 786-O cells were provided by Kevin Courtney and Lew Cantley (Harvard Medical School), and MCF10A cells were provided by Joan Brugge (Harvard Medical School), and Huh7 cells were provided by Mike Hemann (MIT). MCF10A cells were cultured in custom DMEM/F12 (Hyclone) containing 5% horse serum, 20 ng/ml EGF, 10 μg/ml insulin, 100 ng/ml cholera toxin, 0.5 mg/ml hydrocortisone, 100 U/ml penicillin/streptomycin, and labeled/unlabeled glucose and glutamine at 18 mM and 2.5 mM, respectively. PRC3, WT8, pTV, and pTR cell lines were subcloned from the 786-O cell line as previously described (42, 43). For isotopic labeling experiments, cells were cultured in 6 well plates in glucose- and glutamine-free DMEM (Sigma) containing 10% dialyzed FBS (Invitrogen), 100 U/ml P/S, naturally labeled glucose or glutamine, and the appropriate tracer, including [U-^13C5]glutamine (Isotec), [5-^13C]glutamine (C/D/N Isotopes), [1-^13C]glutamine, [U-^13C6]glucose, [1,2-^13C2]glucose (all from Cambridge Isotope Labs). Steady state labeling of organic and amino acids was accomplished by culturing subconfluent cells in tracer medium for 24 hours. […] The internal gas content was monitored using Fyrite gas analyzers (Bacharach) for CO2 and O2. […]
# (§2) Metabolite Extraction and Gas Chromatography/Mass Spectrometry (GC/MS) Analysis. […] In some ISA experiments, cells were trypsinized, counted, and pelleted prior to lipid extraction as described above. […]
# A549 cells = experiment: Reductive glutamine metabolism by isotopic labeling and GC/MS in A549 cells expressing shRNAs; conditions: [1-13C]glutamine
# Method: as §1, §2
# HCT116 colon carcinoma = experiment: Reductive carboxylation by [1-13C]glutamine labeling and GC/MS in HCT116 cells expressing shRNAs
# Method: as §1, §2
sequence,measurement,setting,value
"CCGGGTGGACATCCAGCTAAAGTATCTCGAGATACTTTAGCTGGATGTCCACTTT TT (CCGGGTGGACATCCAGCTAAAGTATCTCGAGATACTTTAGCTGGATGTCCACTTTTT; expressed or natural sequence) [IDH2 shRNA, pLKO.1 lentiviral vector shRNA targeting IDH2]",reductive carboxylation flux (M1 label from [1-13C]glutamine),[1],does not affect reductive carboxylation flux
same,reductive carboxylation (M1 label from [1-13C]glutamine),A549 cells,does not affect reductive carboxylation flux
same,reductive carboxylation flux (M1 label from [1-13C]glutamine),HCT116 colon carcinoma,does not affect reductive carboxylation flux
